Assay results taken from ChEMBL document CHEMBL5150049, “The discovery of (1R, 3R)-1-(3-chloro-5-fluorophenyl)-3-(hydroxymethyl)-1,2,3,4-tetrahydroisoquinoline-6-carbonitrile, a potent and selective agonist of human transient receptor potential cation channel subfamily m member 5 (TRPM5) and evaluation of as a potential gastrointestinal prokinetic agent” (Bioorg Med Chem, 2022).
pEC50: −log10 of the molar value. In brackets after ≈: the same amount, converted by molar mass. Activity calls are given as the source filed them. The calls are words filed in the database; no cut-off is given here.

How the values were obtained:
[1] = target: Transient receptor potential cation channel subfamily M member 4 (Homo sapiens, UniProt Q8TD43); test: Agonist activity at human TRPM4 expressed in CHO-K1 cells assessed as increase in relative fluorescence unit by measuring membrane potential by FLIPR assay; assay type: cell-based
[2] = target: T1, Transient receptor potential cation channel subfamily M member 5 (Homo sapiens, UniProt Q9NZQ8); test: Agonist activity at human TRPM5 expressed in CHO-K1 cells assessed as increase in relative fluorescence unit measured for 2 mins by FLIPR based membrane potential assay; assay type: cell-based
T1 sequence (Q9NZQ8 whole entry): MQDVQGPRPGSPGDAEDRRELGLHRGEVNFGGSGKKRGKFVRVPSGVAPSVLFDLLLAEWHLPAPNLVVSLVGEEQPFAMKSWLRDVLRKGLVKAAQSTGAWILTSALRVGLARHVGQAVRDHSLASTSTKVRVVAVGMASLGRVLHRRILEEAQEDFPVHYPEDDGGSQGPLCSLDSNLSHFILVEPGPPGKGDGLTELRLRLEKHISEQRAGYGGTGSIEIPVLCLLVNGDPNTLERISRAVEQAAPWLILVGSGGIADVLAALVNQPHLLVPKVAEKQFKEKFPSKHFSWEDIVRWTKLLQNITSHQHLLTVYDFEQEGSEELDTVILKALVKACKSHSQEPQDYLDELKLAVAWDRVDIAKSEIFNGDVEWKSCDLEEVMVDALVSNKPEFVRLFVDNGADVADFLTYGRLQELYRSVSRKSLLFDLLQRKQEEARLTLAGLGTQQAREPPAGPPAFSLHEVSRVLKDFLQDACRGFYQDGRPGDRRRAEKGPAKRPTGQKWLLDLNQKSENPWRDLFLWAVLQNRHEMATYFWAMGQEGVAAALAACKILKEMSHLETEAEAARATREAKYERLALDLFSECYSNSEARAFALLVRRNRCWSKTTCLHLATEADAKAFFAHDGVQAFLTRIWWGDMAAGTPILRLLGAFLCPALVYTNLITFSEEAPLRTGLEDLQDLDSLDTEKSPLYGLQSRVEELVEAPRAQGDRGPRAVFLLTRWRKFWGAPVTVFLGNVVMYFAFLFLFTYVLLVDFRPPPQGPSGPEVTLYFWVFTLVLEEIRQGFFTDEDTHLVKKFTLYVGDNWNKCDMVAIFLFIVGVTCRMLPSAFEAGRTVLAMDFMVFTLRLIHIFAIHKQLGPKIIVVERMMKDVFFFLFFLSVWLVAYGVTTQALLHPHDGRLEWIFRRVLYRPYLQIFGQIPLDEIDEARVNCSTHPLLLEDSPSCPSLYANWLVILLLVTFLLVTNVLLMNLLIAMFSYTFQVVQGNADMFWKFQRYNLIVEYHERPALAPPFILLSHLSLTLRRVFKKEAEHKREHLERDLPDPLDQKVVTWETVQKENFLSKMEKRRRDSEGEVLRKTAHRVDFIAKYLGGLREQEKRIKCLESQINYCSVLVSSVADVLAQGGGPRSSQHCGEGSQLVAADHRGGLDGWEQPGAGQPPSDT

[3] = target: T2, Transient receptor potential cation channel subfamily M member 5 (Homo sapiens) (UniProt Q9NZQ8); test: Agonist activity at human TRPM5 expressed in human Caco-2 cells assessed as increase in acetylcholine release at 50 uM incubated for 18 hrs by mass spectrometric analysis; assay type: cell-based; conditions: filed as agonist
T2 sequence (whole entry): T1 sequence (Q9NZQ8 whole entry)

Mus musculus [4] = test: Induction of gastrointestinal motility in CD-1 mouse assessed as increase in fecal weight at 10 to 100 mg/kg, po measured upto 6 hrs; assay type: functional, organism-based; conditions: dose 10-100 mg/kg
Mus musculus [5] = test: Induction of gastrointestinal motility in CD-1 mouse assessed as increase in fecal water content at 10 to 100 mg/kg, po measured upto 6 hrs; assay type: functional, organism-based; conditions: dose 10-100 mg/kg
[6] = target: T3, Transient receptor potential cation channel subfamily M member 5 (Mus musculus) (UniProt Q9JJH7); test: Binding affinity to mouse colon mucosal epithelium TRPM5 assessed as increase in short circuit current; assay type: tissue-based; conditions: Colonic epithelium, filed as agonist
T3 sequence (whole entry): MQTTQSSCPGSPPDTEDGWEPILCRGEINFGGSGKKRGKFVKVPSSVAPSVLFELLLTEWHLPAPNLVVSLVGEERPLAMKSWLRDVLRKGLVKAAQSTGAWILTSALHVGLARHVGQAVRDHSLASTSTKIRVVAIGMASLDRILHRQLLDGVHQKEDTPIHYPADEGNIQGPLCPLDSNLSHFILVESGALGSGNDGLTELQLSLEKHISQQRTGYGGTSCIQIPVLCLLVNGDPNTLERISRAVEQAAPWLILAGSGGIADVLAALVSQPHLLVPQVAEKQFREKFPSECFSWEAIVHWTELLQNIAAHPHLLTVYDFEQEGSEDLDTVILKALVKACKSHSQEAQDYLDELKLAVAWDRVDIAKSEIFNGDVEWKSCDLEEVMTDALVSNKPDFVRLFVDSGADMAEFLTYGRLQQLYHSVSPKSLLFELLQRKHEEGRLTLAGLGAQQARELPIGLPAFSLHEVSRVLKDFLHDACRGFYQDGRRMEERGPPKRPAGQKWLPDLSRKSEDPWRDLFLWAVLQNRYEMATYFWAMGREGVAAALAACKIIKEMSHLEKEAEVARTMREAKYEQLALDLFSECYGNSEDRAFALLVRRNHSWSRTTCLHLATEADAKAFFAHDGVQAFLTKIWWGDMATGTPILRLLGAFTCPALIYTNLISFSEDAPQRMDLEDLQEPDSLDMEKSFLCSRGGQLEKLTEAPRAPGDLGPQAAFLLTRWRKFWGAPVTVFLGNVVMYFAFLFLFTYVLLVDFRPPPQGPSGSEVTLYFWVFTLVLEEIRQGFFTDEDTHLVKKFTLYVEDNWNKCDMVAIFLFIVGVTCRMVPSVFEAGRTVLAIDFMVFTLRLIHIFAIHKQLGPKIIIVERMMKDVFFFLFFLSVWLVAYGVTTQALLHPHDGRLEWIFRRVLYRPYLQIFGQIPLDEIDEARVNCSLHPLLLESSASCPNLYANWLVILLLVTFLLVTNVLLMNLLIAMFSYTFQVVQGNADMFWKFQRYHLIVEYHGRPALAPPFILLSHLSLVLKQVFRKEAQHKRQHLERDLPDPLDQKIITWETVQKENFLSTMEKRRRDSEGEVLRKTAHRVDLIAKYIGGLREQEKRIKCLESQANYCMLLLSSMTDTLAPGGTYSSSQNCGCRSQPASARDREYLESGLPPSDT

[7] = target: T1, Transient receptor potential cation channel subfamily M member 5; test: Agonist activity at human TRPM5 in HEK293T cells by FLIPR based assay; assay type: cell-based
[8] = Half-life in Sprague-Dawley rat; assay type: ADME; conditions: in vivo
[9] = target: T1, Transient receptor potential cation channel subfamily M member 5; test: Agonist activity at TRPM5 (unknown origin)
[10] = Metabolic stability in human liver microsomes assessed as half life; assay type: ADME, Microsome; conditions: liver microsomes
[11] = Intrinsic clearance in Sprague-Dawley rat; assay type: ADME
[12] = Solubility of the compound in JP1 solution; assay type: physicochemical
[13] = target: T1, Transient receptor potential cation channel subfamily M member 5; test: Agonist activity at human TRPM5 expressed in HEK cells by whole cell electrophysiology method; assay type: cell-based
[14] = Solubility of the compound in JP2 solution; assay type: physicochemical
[15] = Metabolic stability in human liver microsomes assessed as intrinsic clearance; assay type: ADME, Microsome; conditions: read-out: CLH

Sequence of Transient receptor potential cation channel subfamily M member 4 (Q8TD43 whole entry): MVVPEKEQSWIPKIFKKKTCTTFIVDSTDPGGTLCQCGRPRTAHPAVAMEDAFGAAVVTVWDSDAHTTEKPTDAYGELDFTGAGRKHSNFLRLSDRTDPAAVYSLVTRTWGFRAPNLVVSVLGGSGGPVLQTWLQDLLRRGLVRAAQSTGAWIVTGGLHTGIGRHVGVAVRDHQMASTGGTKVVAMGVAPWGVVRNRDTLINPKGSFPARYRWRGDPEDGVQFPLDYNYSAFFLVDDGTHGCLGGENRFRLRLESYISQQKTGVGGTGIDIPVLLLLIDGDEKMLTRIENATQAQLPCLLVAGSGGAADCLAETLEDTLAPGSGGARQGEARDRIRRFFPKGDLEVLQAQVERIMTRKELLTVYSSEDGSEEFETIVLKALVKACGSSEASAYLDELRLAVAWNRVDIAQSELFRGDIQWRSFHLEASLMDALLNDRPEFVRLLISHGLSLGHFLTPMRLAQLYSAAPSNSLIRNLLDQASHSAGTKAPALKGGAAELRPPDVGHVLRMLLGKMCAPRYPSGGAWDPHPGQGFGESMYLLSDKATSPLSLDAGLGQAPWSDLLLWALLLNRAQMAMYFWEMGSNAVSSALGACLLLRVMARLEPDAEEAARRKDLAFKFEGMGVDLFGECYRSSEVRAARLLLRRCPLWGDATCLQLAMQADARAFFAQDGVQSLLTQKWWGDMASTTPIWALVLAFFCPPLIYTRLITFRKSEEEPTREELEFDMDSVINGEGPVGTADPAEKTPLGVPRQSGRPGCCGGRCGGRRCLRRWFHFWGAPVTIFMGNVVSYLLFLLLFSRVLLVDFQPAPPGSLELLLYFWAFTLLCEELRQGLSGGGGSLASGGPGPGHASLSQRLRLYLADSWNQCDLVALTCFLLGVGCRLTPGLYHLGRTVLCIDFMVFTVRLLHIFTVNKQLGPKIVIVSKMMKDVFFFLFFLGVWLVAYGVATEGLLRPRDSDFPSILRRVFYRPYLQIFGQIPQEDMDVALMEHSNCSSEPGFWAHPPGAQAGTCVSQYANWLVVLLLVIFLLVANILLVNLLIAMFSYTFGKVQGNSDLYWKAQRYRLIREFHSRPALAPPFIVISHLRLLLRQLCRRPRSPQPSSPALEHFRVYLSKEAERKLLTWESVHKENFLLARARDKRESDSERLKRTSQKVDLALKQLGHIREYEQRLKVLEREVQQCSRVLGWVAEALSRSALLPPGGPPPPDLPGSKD

Compound | pEC50 [2] | other results
N#Cc1ccc2c(c1)C[C@@H](CO)N[C@H]2c1cc(F)cc(Cl)c1 | 4.70 | –
N#Cc1ccc2c(c1)C[C@H](CO)N[C@@H]2c1cc(F)cc(Cl)c1 | – | Activity [3]: Active; Activity (Mus musculus [4]): Active; Activity (Mus musculus [5]): Active; Activity [6]: Active
OCc1cc2ccc(Cl)cc2c(-c2ccccc2)n1 | < 4.50 | –
Cc1ccc([C@@H]2N[C@H](CO)Cc3ccc(Cl)cc32)cc1 | 5.20 | –
Cc1ccc2c(c1)[C@H](c1ccccc1)N[C@H](CO)C2 | 5.00 | –
OC[C@H]1Cc2ccc(Cl)cc2[C@H](c2ccccc2)N1 | < 4.50 | –
OC[C@@H]1Cc2ccc(Cl)cc2[C@H](c2ccncc2)N1 | < 4.50 | –
Cc1ccccc1[C@@H]1N[C@H](CO)Cc2ccc(Cl)cc21 | < 4.50 | –
C=CC(C)(C)c1cc2cc3c(cc2oc1=O)O[C@H](C(C)(C)OC(C)=O)C3 | – | pEC50 [7]: 4.57
OC[C@@H]1Cc2ccccc2[C@H](c2ccccc2)N1 | < 4.50 | –
OC[C@@H]1Cc2ccc(Cl)cc2[C@@H](c2ccccc2)N1 (racemic) | < 4.50 | –
OC[C@@H]1Cc2cccc(Cl)c2[C@H](c2ccccc2)N1 | < 4.50 | –
OC[C@@H]1Cc2ccc(Cl)cc2[C@H](c2ccccn2)N1 | 5.10 | –
CN1[C@H](CO)Cc2ccc(Cl)cc2[C@@H]1c1ccccc1 | < 4.50 | –
OC[C@@H]1Cc2cc(Cl)ncc2[C@H](c2cc(F)cc(Cl)c2)N1 | 5.70 | –
N#Cc1ccc2c(c1)[C@H](c1cc(F)cc(Cl)c1)N[C@H](CO)C2 | 5.10 | –
COC[C@@H]1Cc2ccc(Cl)cc2[C@H](c2ccccc2)N1 | 4.80 | –
Cc1ccc2c(c1)C[C@@H](CO)N[C@H]2c1ccccc1 | 5.00 | –
Clc1cnc(CNc2cc3sncc3cc2Cl)s1 | – | Activity [3]: Active
OC[C@@H]1Cc2ccc(Cl)cc2[C@H](c2cccnc2)N1 | 4.70 | –

More lines, in order of rising pEC50 [2], values ahead:

pEC50 [2] | Compound | other results
5.50 | OC[C@@H]1Cc2cc(Cl)cnc2[C@H](c2cc(F)cc(Cl)c2)N1 | –
5.80 | OC[C@@H]1Cc2cc(Cl)ccc2[C@H](c2ccccc2Cl)N1 | –
5.90 | OC[C@@H]1Cc2c(Cl)cccc2[C@H](c2ccccc2)N1 | –
6.00 | Cc1cc([C@@H]2N[C@H](CO)Cc3ccc(Cl)cc32)ccc1Cl | pEC50 [1]: 4.59
6.10 | OC[C@@H]1Cc2ccc(Cl)cc2[C@H](c2ccccc2)N1 (racemic) | pEC50 [1]: 4.61
6.20 | C=CCNC(=S)/N=c1/sc2ccccc2n1C | half-life [8]: 2.6 min; pEC50 [9]: 5.00; half-life [10]: 4.1 min; CLint scaled [11]: 540 mL/min/kg; solubility [12]: 1.7 µM (≈ 0.448 µg/mL); pEC50 [13]: 5.03; solubility [14]: 0.9 µM (≈ 0.237 µg/mL); CLint scaled [15]: 338 mL/min/kg
6.30 | OC[C@@H]1Cc2cc(Cl)ccc2[C@H](c2ccccc2)N1 | pEC50 [1]: 4.58
6.30 | OC[C@@H]1Cc2ccc(Cl)cc2[C@H](c2cccc(Cl)c2)N1 | pEC50 [1]: 5.74
6.50 | OC[C@@H]1Cc2cc(Cl)c(F)cc2[C@H](c2ccccc2)N1 | –
6.50 | OC[C@@H]1Cc2ccc(Cl)cc2[C@H](c2cccc(F)c2)N1 | pEC50 [1]: 5.77
6.60 | N#Cc1cc(F)cc([C@@H]2N[C@H](CO)Cc3cc(Cl)ccc32)c1 | –
6.70 | OC[C@@H]1Cc2ccc(Cl)cc2[C@H](c2cc(F)cc(F)c2)N1 | pEC50 [1]: 6.23
6.70 | OC[C@@H]1Cc2ccc(Cl)cc2[C@H](c2cc(Cl)cc(Cl)c2)N1 | pEC50 [1]: 5.05
7.00 | OC[C@@H]1Cc2ccc(Cl)cc2[C@H](c2cc(F)cc(Cl)c2)N1 | pEC50 [1]: 5.87
7.20 | OC[C@@H]1Cc2cc(Cl)ccc2[C@H](c2cc(F)cc(Cl)c2)N1 | –
7.30 | OC[C@@H]1Cc2cc(Cl)c(Cl)cc2[C@H](c2ccccc2)N1 | –
